The source of these data is patent publication US11351147B2, “Short syntheses of (−)-picrotoxinin and related compounds” (The Scripps Research Institute, priority 2020, dated 2022).

“And” between values parts separate entries of the source, which are not always exact repeats. Equal values may be shown once.

Data set [1] deals with Rat GABAA Ion Channel. Description: Non-selective Rat GABAA Ion Channel [3H] TBOB Binding (Antagonist Radioligand) Assay. The settings on record: displacement of [3H] TBOB, rat cerebral cortex GABAA receptors. The procedure:
A Non-selective Rat GABAA Ion Channel [3H] TBOB Binding (Antagonist Radioligand) Assay (Catalog #3817) was conducted by Eurofins Pharma Discovery Service of Eurofins Cerep, France. The assay is based on these publications: Lewin, A. H. et al. Mol. Pharmacol. 1989, 35, 189, and Schwartz, R. D.; Mindlin, M. C. J. Pharmacol. Exp. Ther. 1987, 244, 963.
Compound binding was calculated as a percentage inhibition of the binding of the radioactive ligand [3H] TBOB (t-[3H]Butylbicycloorthobenzoate) for RAT GABAA Ion Channels.
A 20.0 mM stock solution was prepared in DMSO from pure solid 5-methyl-picrotoxinin (20) to evaluate radioligand displacement of [3H] TBOB from rat cerebral cortex GABAA receptors at final concentrations of 200 μM, 63 μM, 20 μM, 6.3 μM, 2.0 μM, and 0.6 μM.

A short description of data set [2]: Hydrolytic stability study in pH 8 phosphate buffer (NMR monitoring). The settings on record: for Concentration over Time: 100 mM phosphate buffer pH=8 (D2O); for ln of concentration: pH=8 buffer. The data set is classed as physicochemical. The protocol:
In separate 5 mm NMR tubes, picrotoxinin (1, 1 mg) or 5-methyl picrotoxinin (20, 1 mg) were dissolved in 1 mL of 100 mM phosphate buffer (pH=8, prepared with D20). Spectra were acquired at 0, 6, 12, 24, 36, 48, 60, 72, 84, 96, and 120 h. and monitored for the amount of hydrolysis product (Table 1).

Data set [3] deals with mice. Conditions: cited from earlier work.

`C=C(C)C1C2OC(=O)C1C1(O)C[C@H]3O[C@]34C(=O)OC2C14C` (single isomer, unassigned; (-)) [compound 1, (−)-picrotoxinin] displayed an IC50 in data set [1] of 0.2 µM. The inhibition constant Ki in data set [1] was 0.2 µM. For the same compound, the “Concentration over Time” value in data set [2] (0 h) was 3.42 mM; in data set [2] (6 h), 3.257 mM; in data set [2] (12 h), 2.974 mM; in data set [2] (24 h) it was 2.124 mM; in data set [2] (36 h), 1.879 mM; in data set [2] (48 h) it was 1.413 mM. In addition, the “Concentration over Time” value is recorded as 1.281 mM in data set [2] (60 h); 1.167 mM in data set [2] (72 h); 0.9144 mM in data set [2] (84 h); 0.7755 mM in data set [2] (96 h); 0.5294 mM in data set [2] (120 h). For the same compound, the ln of concentration in data set [2] (0 h) was found to be 1.23; in data set [2] (6 h) it was 1.181; in data set [2] (12 h), 1.09; in data set [2] (24 h), 0.7534; in data set [2] (36 h), 0.6308; in data set [2] (48 h), 0.3459. The ln of concentration in data set [2] (60 h) is listed as 0.2476; in data set [2] (72 h) it was 0.1546; in data set [2] (84 h) it was −0.08945; in data set [2] (96 h), −0.2542; in data set [2] (120 h) it was −0.636.
As to `C=C(C)C1C2OC(=O)C1(C)C1(O)C[C@H]3O[C@]34C(=O)OC2C14C` (stereo partly drawn) [compound 20, 5-methylpicrotoxinin], in data set [1], the IC50 is 9.2 µM and 9 µM. For the same compound, in data set [1], the Ki is 8.2 µM. Further, the “Concentration over Time” value in data set [2] (0 h) stood at 3.27 mM; in data set [2] (6 h), 3 mM; in data set [2] (12 h), 2.771 mM; in data set [2] (24 h), 2.44 mM; in data set [2] (36 h) it was 2.195 mM; in data set [2] (48 h), 2.031 mM. Besides, the “Concentration over Time” value in data set [2] (60 h) is recorded as 1.912 mM; in data set [2] (72 h), 1.797 mM; in data set [2] (84 h), 1.686 mM; in data set [2] (96 h) it was 1.643 mM; in data set [2] (120 h), 1.535 mM. In addition, the “aqueous stability compared with compound (1)” value in data set [2] (pH 8) is “slightly improved”. For the same compound, in data set [2] (pH 8), the “pseudo-first order rate constant compared with compound (1)” value is “more than halving”. Besides, the ln of concentration in data set [2] (0 h) is given as 1.185; in data set [2] (6 h) it was 1.099; in data set [2] (12 h), 1.019; in data set [2] (24 h) it was 0.8921; in data set [2] (36 h), 0.786; in data set [2] (48 h), 0.7086. The ln of concentration in data set [2] (60 h) was found to be 0.6483; in data set [2] (72 h), 0.586; in data set [2] (84 h), 0.5221; in data set [2] (96 h), 0.4967; in data set [2] (120 h) it was 0.4287.
In the case of `C[C@@H]1CC[C@]23OC(=O)[C@@]4(O)O[C@H](C[C@@]124)[C@@]1(O)C(=O)OC[C@@]31C` [jiadifenolide], in data set [3], the convulsive signature result is listed as “no convulsive signature”.
